Data from patent publication US20110178174A1, “SALTS OF TRAMADOL AND IBUPROFEN AND THEIR CRYSTAL FORM IN THE TREATMENT OF PAIN” (LABORATORIOS DEL DR. ESTEVE, S.A., priority 2008, published 2011).

Experiments:
[1] = Thermogravimetric (TG) analysis, weight loss due to decomposition; type: physicochemical; conditions: heated at 10° C./min from 30 to 500° C., under nitrogen (80 mL/min)
Experimental: Thermogravimetric analyses were recorded in a Mettler Toledo SDTA851e. Samples of 3-4 mg were weighted into 40 μL aluminium crucibles with a pinhole lid, and heated at 10° C./min from 30 to 500° C., under nitrogen (80 mL/min).

[2] = cited from earlier work

Compound | TG analysis: weight loss beginning due to decomposition (temperature) [1] | amount of ibuprofen that dissolves in 1 ml of water [2]
CC(C)Cc1ccc([C@H](C)C(=O)O)cc1.COc1cccc([C@]2(O)CCCC[C@H]2CN(C)C)c1 [(−)-tramadol-(S)-ibuprofen salt, Phase 1] | 140 °C | 
CC(C)Cc1ccc([C@H](C)C(=O)O)cc1.COc1cccc([C@]2(O)CCCC[C@H]2CN(C)C)c1 [(−)-tramadol-(S)-ibuprofen salt, Phase 2, (−)-tramadol-(S)-ibuprofen Salt, Phase 2] | 130 °C | 
CC(C)Cc1ccc(C(C)C(=O)O)cc1 (stereo not shown) [ibuprofen, 2-[4-(2-methylpropyl)phenyl]propanoic acid] |  | Less than 1 mg
(+)-tramadol-(S)-ibuprofen salt | 130 °C | 
